Reference: PubChem BioAssay (NCI)
“And” between values parts separate entries of the source, which are not always exact repeats. Equal values may be shown once.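 Test compounds were applied to cells in 96-well plates for 48 hours at 5 doses. GI50 = concentration required for 50% inhibition of growth. TGI marks complete inhibition of growth.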

Columns and labels:
Assay in all cases: NCI tumour cell line growth inhibition, 48 h
SN12C renal = tested on: SN12C renal
OVCAR-5 ovarian = tested on: OVCAR-5 ovarian
UACC-257 melanoma = tested on: UACC-257 melanoma
786-0 renal = tested on: 786-0 renal
HOP-62 NSCLC = tested on: HOP-62 NSCLC
MALME-3M melanoma = tested on: MALME-3M melanoma
SK-MEL-2 melanoma = tested on: SK-MEL-2 melanoma
ACHN renal = tested on: ACHN renal
UACC-62 melanoma = tested on: UACC-62 melanoma

Compound	GI50 (SN12C renal)	TGI (SN12C renal)	GI50 (OVCAR-5 ovarian)	TGI (OVCAR-5 ovarian)	GI50 (UACC-257 melanoma)	TGI (UACC-257 melanoma)	GI50 (786-0 renal)	TGI (786-0 renal)	GI50 (HOP-62 NSCLC)	TGI (HOP-62 NSCLC)	GI50 (MALME-3M melanoma)	TGI (MALME-3M melanoma)	GI50 (SK-MEL-2 melanoma)	GI50 (ACHN renal)	TGI (ACHN renal)	GI50 (UACC-62 melanoma)	TGI (UACC-62 melanoma)	TGI (SK-MEL-2 melanoma)
Cc1ccc(C(=O)N(CCCN)C(c2oc3cc(Cl)ccc3c(=O)c2Cc2ccccc2)C(C)C)cc1 (centres undefined)	< 0.01 µM	2.07 µM	< 0.01 µM	1.78 µM	< 0.01 µM	1.97 µM	< 0.01 µM	2.11 µM	< 0.01 µM	1.85 µM	1.3 µM	3.09 µM	< 0.01 µM	1.07 µM	2.39 µM	< 0.01 µM	2.3 µM	–
CCCCCCCCn1ccc2cc(NC(=O)Cn3cc(CN4CCCC4)nn3)ccc21	1.74 µM	3.29 µM	1.78 µM	4 µM	1.86 µM	3.57 µM	1.69 µM	3.13 µM	1.75 µM	3.49 µM	1.52 µM	2.89 µM	1.86 µM	1.69 µM	3.07 µM	1.7 µM	3.16 µM	3.66 µM
COc1cc[nH]c1/C=C1\C(=O)Nc2ccc(F)c(C#CC3(O)CCNCC3)c21	0.0626 µM	2.5 µM	0.275 µM	2.37 µM	0.363 µM	1.6 µM	0.106 µM	1.68 µM	0.261 µM	1.47 µM	0.405 µM	1.11 µM	0.00988 µM	0.0262 µM	2.56 µM	0.16 µM	0.633 µM	0.464 µM
O=C1C(Cl)=C(NCCN2CCOCC2)C(=O)c2ncccc21	1.93 µM	3.2 µM and 3.84 µM	–	3.59 µM and 3.56 µM	1.37 µM	3.13 µM and 2.69 µM	2.5 µM	2.81 µM and 7.83 µM	1.77 µM	4.46 µM and 3.36 µM	1.13 µM	3.07 µM and 2.63 µM	2.16 µM	1.45 µM	7.29 µM and 2.91 µM	1.15 µM	3.52 µM and 2.61 µM	4.37 µM
CC/C=C\C[C@@H](O)C/C=C1/C(=O)C=C[C@H]1C/C=C\CCCC(=O)OC	4.64 µM	19.3 µM	3.35 µM	12.1 µM	3.38 µM	8.36 µM	3.29 µM	11.5 µM	3.31 µM	9.8 µM	2.87 µM	9.3 µM	6.99 µM	1.97 µM	4.02 µM	2.8 µM	8.6 µM	21.6 µM
Cc1ccc(C(=O)NC(C)C)cc1-c1ccc(C(=O)NCC2CC2)cc1	> 25 µM	> 25 µM	> 25 µM	> 25 µM	> 25 µM	> 25 µM	> 25 µM	> 25 µM	> 25 µM	> 25 µM	> 25 µM	> 25 µM	> 25 µM	> 25 µM	> 25 µM	> 25 µM	> 25 µM	> 25 µM
O=C1Nc2ccccc2C1(c1ccc(O)cc1)c1ccc(O)cc1	0.312 µM	50.6 µM	25.6 µM	81.5 µM	25.3 µM	62 µM	26.7 µM	75.9 µM	20.5 µM	53.1 µM	28.5 µM	92 µM	22.9 µM	17.9 µM	> 100 µM	19.2 µM	43.8 µM	50.6 µM
